Results reported in ChEMBL document CHEMBL3879900, “aSMase inhibitors” (2012).
Active and inactive are the calls of the source. How the calls were made is not given here.

target: T1, Sphingomyelin phosphodiesterase (Homo sapiens) (UniProt P17405); test: Inhibition of recombinant human acid sphingomyelinase expressed in HEKfreestyle293 cells using bodipy-C12 sphingomyelin as substrate and nanomolar to low micromolar concentration of compound after 1 hr by fluorescence assay
T1 sequence (whole entry): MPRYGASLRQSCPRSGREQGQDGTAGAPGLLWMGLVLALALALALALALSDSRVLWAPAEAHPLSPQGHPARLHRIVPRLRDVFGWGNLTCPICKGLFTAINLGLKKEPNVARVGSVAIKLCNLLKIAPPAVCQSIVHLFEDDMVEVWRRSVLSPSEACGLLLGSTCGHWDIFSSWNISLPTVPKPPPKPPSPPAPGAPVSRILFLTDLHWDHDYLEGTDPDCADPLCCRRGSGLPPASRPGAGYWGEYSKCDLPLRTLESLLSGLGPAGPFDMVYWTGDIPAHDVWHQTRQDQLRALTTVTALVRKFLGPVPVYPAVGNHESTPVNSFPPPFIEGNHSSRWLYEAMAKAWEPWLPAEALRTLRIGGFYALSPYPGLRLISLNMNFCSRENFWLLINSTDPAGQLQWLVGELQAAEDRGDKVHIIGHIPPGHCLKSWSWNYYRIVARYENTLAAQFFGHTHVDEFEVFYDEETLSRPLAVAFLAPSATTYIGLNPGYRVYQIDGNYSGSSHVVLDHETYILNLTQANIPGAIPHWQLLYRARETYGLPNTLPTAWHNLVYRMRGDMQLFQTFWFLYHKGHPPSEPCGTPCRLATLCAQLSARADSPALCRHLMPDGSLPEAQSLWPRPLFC

| Compound | inhibition |
| --- | --- |
| CCCCCCCCOc1ccc(-c2ccc(C(=O)Nc3cccc(N4CC(=O)NS4(=O)=O)c3)cc2)cc1 | Active |
| CCCCCCCCOc1ccc(-c2ccc(C(=O)Nc3ccccc3P(=O)(OCC)OCC)cc2)cc1 | Active |
| COc1ccc(-c2ccc(C(=O)Nc3ccccc3CP(=O)(O)O)cc2)cc1 | Active |
| CCCCCCCCOc1ccc(-c2ccc(C(=O)Nc3cccc(CCP(=O)(OCC)OCC)c3)cc2)cc1 | Active |
| O=C(Nc1ccccc1CP(=O)(O)O)c1ccc(-c2ccccc2)cc1 | Active |
| CCCCCCCCOc1ccc(-c2ccc(C(=O)Nc3ccc(C(F)(F)CC(F)(F)P(=O)(OCC)OCC)cc3)cc2)cc1 | Active |
| CCCCCCCCCCOc1ccc(-c2ccc(C(=O)Nc3ccccc3P(=O)(OCC)OCC)cc2)cc1 | Active |
| CCCCCCCCOc1ccc(-c2ccc(C(=O)Nc3cccc(C(F)(F)C(F)(F)P(=O)(OCC)OCC)c3)cc2)cc1 | Active |
| O=C(Nc1ccccc1CP(=O)(O)O)c1ccc(-c2ccc(OCc3ccccc3)cc2)cc1 | Active |
| CCCCCCCCOc1ccc(-c2ccc(C(=O)Nc3ccccc3CCP(=O)(OCC)OCC)cc2)cc1 | Active |
| CCCCCCCCOc1ccc(-c2ccc(C(=O)Nc3ccc(CCP(=O)(OCC)OCC)cc3)cc2)cc1 | Active |
| O=C(Nc1ccccc1CP(=O)(O)O)c1ccc(-c2ccc(O)cc2)cc1 | Active |
| CCCCCCCCOc1ccc(-c2ccc(C(=O)Nc3ccccc3C(F)(F)P(=O)(OCC)OCC)cc2)cc1 | Active |
| CCCCCCCCCCOc1ccc(-c2ccc(C(=O)Nc3ccccc3CP(=O)(O)O)cc2)cc1 | Active |
| CCCCCCCCOc1ccc(-c2ccc(C(=O)Nc3ccc(P(=O)(OCC)OCC)cc3)cc2)cc1 | Active |
| CCCCCCCCOc1ccc(-c2ccc(C(=O)Nc3ccccc3P(=O)(O)OCOC(=O)C(C)(C)C)cc2)cc1 | Active |
| CCCCCCCCOc1ccc(-c2ccc(C(=O)Nc3ccc(P(=O)(O)OCC)cc3)cc2)cc1 | Active |
| CCCCCCCCOc1ccc(-c2ccc(C(=O)Nc3ccccc3C(F)(F)C(F)(F)P(=O)(OCC)OCC)cc2)cc1 | Active |
| O=C(Nc1ccccc1CP(=O)(O)O)C12CC3CC(C1)CC(c1ccccc1)(C3)C2 | Active |
| CCCCCCc1ccc(-c2ccc(C(=O)Nc3ccccc3CP(=O)([O-])OCC[N+](C)(C)C)cc2)cc1 | Active |
| CCCCOc1ccc(-c2ccc(C(=O)Nc3ccccc3CP(=O)(O)O)cc2)cc1 | Active |
| CCCCCCCCOc1ccc(-c2ccc(C(=O)Nc3ccc(C(F)(F)P(=O)(OCC)OCC)cc3)cc2)cc1 | Active |
| CCCCCCCCOc1ccc(-c2ccc(C(=O)Nc3ccc(C(F)(F)C(F)(F)P(=O)(OCC)OCC)cc3)cc2)cc1 | Active |
| CCCCCCCCOc1ccc(-c2ccc(C(=O)Nc3ccc(C(F)(F)C(F)(F)P(=O)(O)OCC)cc3)cc2)cc1 | Active |
| CCCCCCCCOc1ccc(-c2ccc(C(=O)Nc3cccc(CP(=O)(OCC)OCC)c3)cc2)cc1 | Active |
| CCCCCCCCOc1ccc(-c2ccc(C(=O)Nc3ccccc3P(=O)(OCOC(=O)C(C)(C)C)OCOC(=O)C(C)(C)C)cc2)cc1 | Active |
| CCCCCCCCOc1ccc(-c2ccc(C(=O)Nc3cccc(P(=O)(OCC)OCC)c3)cc2)cc1 | Active |
| CCCCCCc1ccc(-c2ccc(C(=O)Nc3ccccc3CP(=O)(O)O)cc2)cc1 | Active |

The next lines start with the values.

| inhibition | Compound |
| --- | --- |
| Active | CCCCCCCCOc1ccc(-c2ccc(C(=O)Nc3cccc(C(F)(F)P(=O)(O)OCC)c3)cc2)cc1 |
| Active | CCCCCCCCOc1ccc(-c2ccc(C(=O)Nc3cccc(P(=O)(O)OCC)c3)cc2)cc1 |
| Active | CCCCCCCCOc1ccc(-c2ccc(C(=O)Nc3ccccc3P(=O)(O)O)cc2)cc1 |
| Active | CCCCCCCCOc1ccc(-c2ccc(C(=O)Nc3ccc(CCP(=O)(O)O)cc3)cc2)cc1 |
| Active | CCCCCCCCOc1ccc(-c2ccc(C(=O)Nc3cccc(C(F)(F)P(=O)(O)O)c3)cc2)cc1 |
| Active | CCCCCCCCOc1ccc(-c2ccc(C(=O)N(C)c3cccc(C(F)(F)P(=O)(O)OCC)c3)cc2)cc1 |
| Active | CCCCCCCCOc1ccc(-c2ccc(C(=O)Nc3ccccc3CP(=O)(O)O)cc2)cc1 |
| Active | CCCCCCCCOc1ccc(-c2ccc(C(=O)Nc3ccc(CP(=O)(O)O)cc3)cc2)cc1 |
| Active | CCCCCCCCOc1ccc(-c2ccc(C(=O)Nc3ccccc3P(=O)(O)OCC)cc2)cc1 |
| Active | CCCCCCCCOc1ccc(-c2ccc(C(=O)Nc3ccccc3C(F)(F)P(=O)(OC)OCC)cc2)cc1 (stereo not drawn) |
| Active | CCCCCCCCOc1ccc(-c2ccc(C(=O)N(C)c3ccc(C(F)(F)P(=O)(O)O)cc3)cc2)cc1 |
| Active | CCCCCCCCOc1ccc(-c2ccc(C(=O)N(C)c3cccc(C(F)(F)P(=O)(OC)OCC)c3)cc2)cc1 (stereo not drawn) |
| Active | CCCCCCCCOc1ccc(-c2ccc(C(=O)Nc3ccc(C(F)(F)P(=O)(O)OCC)cc3)cc2)cc1 |
| Active | CCCCCCCCOc1ccc(-c2ccc(C(=O)Nc3ccccc3C(F)(F)C(F)(F)P(=O)(O)O)cc2)cc1 |
| Active | CCCCCCCCOc1ccc(-c2ccc(C(=O)Nc3cccc(P(=O)(O)O)c3)cc2)cc1 |
| Active | CCCCCCCCOc1ccc(-c2ccc(C(=O)N(C)c3ccccc3C(F)(F)P(=O)(OCC)OCC)cc2)cc1 |
| Active | CCCCCCCCOc1ccc(-c2ccc(C(=O)N(C)c3ccccc3C(F)(F)P(=O)(OC)OCC)cc2)cc1 (stereo not drawn) |
| Active | CCCCCCCCOc1ccc(-c2ccc(C(=O)Nc3cccc(C(F)(F)P(=O)(OCC)OCC)c3)cc2)cc1 |

| inhibition | Compound |
| --- | --- |
| Active | CCCCCCCCOc1ccc(-c2ccc(C(=O)N(C)c3ccc(C(F)(F)P(=O)(OC)OCC)cc3)cc2)cc1 (stereo not drawn) |
| Active | CCCCCCCCOc1ccc(-c2ccc(C(=O)N(C)c3cccc(C(F)(F)P(=O)(O)O)c3)cc2)cc1 |
| Active | CCCCCCCCOc1ccc(-c2ccc(C(=O)Nc3ccccc3C(F)(F)P(=O)(O)O)cc2)cc1 |
| Active | CCCCCCCCOc1ccc(-c2ccc(C(=O)Nc3ccc(C(F)(F)P(=O)(O)O)cc3)cc2)cc1 |
| Active | CCCCCCCCOc1ccc(-c2ccc(C(=O)N(C)c3ccc(C(F)(F)P(=O)(OCC)OCC)cc3)cc2)cc1 |
| Active | CCCCCCCCOc1ccc(-c2ccc(C(=O)Nc3ccc(P(=O)(O)O)cc3)cc2)cc1 |
| Active | CCCCCCCCOc1ccc(-c2ccc(C(=O)Nc3ccccc3CCP(=O)(O)O)cc2)cc1 |
| Active | CCCCCCCCOc1ccc(-c2ccc(C(=O)Nc3cccc(CCP(=O)(O)O)c3)cc2)cc1 |
| Active | CCCCCCCCOc1ccc(-c2ccc(C(=O)Nc3cccc(C(F)(F)C(F)(F)P(=O)(O)O)c3)cc2)cc1 |
| Active | CCCCCCCCOc1ccc(-c2ccc(C(=O)N(C)c3ccccc3C(F)(F)P(=O)(O)O)cc2)cc1 |
| Active | CCCCCCCCOc1ccc(-c2ccc(C(=O)Nc3cccc(CP(=O)(O)OCC)c3)cc2)cc1 |
| Active | CCCCCCCCOc1ccc(-c2ccc(C(=O)N(C)c3cccc(C(F)(F)P(=O)(OCC)OCC)c3)cc2)cc1 |
| Active | CCCCCCCOc1ccc(-c2ccc(C(=O)Nc3cccc(P(=O)(O)O)c3)cc2)cc1 |
| Active | CCCCCCCCOc1ccc(-c2ccc(C(=O)N(CC)c3cccc(C(F)(F)P(=O)(OCC)OCC)c3)cc2)cc1 |
| Active | CCCCCCCCOc1ccc(-c2ccc(C(=O)Nc3ccc(C(F)(F)C(F)(F)P(=O)(O)O)cc3)cc2)cc1 |
| Active | CCCCCCCCOc1ccc(-c2ccc(C(=O)Nc3cccc(CP(=O)(O)O)c3)cc2)cc1 |
| Active | CCCCCCCCOc1ccc(-c2ccc(C(=O)Nc3ccccc3C(F)(F)P(=O)(O)OCC)cc2)cc1 |
